Legend:
Type in all cases: in vivo, human
[1] = system: subjects with spinocerebellar ataxia (SCA); assay: Same trial: Patient Global Impression of Change (PGI-C)
Description: This is a patient self-reported global index scale that may be used to rate the response of a condition to a therapy.
(§1) Study Type: Interventional Study Design: Allocation: Randomized • Intervention Model: Parallel Assignment • Masking: Quadruple (Participant, Care Provider, Investigator, Outcomes Assessor) • Primary Purpose: Treatment • Official Title: A Phase IIb/III, Randomized, Double-blind, Placebo-controlled Trial of BHV-4157 in Adult Subjects With Spinocerebellar Ataxia Primary Outcome Measures: • To measure the change in total score on the Scale for Assessment and Rating of Ataxia (SARA) [Time Frame: The change in total score from baseline to week 8.] Secondary Outcome Measures: • To assess the safety and tolerability of BHV-4157 in subjects with SCA by measuring the frequency and severity of adverse events and discontinuations of adverse events. [Time Frame: Baseline to week 8.] Measured by the frequency and severity of adverse events and discontinuations of adverse events. • To compare efficacy of BHV-4157 with placebo on patient impression of benefit via use of the PGI-C [Time Frame: Baseline to Week 8] Change in PGI-C score
(§2) The study is a Phase IIb/III, multicenter, randomized, double-blind, 2-arm placebo-controlled parallel-group study designed to assess safety, tolerability, and efficacy signals in a population of patients with Spinocerebellar Ataxia (SCA). Subjects will be randomized to receive placebo (QD) or BHV-4157 (140 mg QD), stratified by diagnosis (genotype) and baseline severity (Gait Item of the SARA of ≤4 and >4). Subjects with SCA3 genotype will be limited to comprise up to approximately 10% of the total population so that this most common type of SCA is not over-represented.

[2] = system: subjects with spinocerebellar ataxia (SCA); assay: Same trial: Clinical Global Impression-Global Improvement (CGI-I)
Procedure: Clinical Global Impression-Global Improvement (CGI-I)
as §2

[3] = system: subjects with spinocerebellar ataxia (SCA); assay: Further analysis of Example 1 study: Modified SARA, 8 week change from baseline; details: for change in SARA score (difference BHV-4157 vs placebo): enriched genotypes
Description: This example describes a further analysis of the study of Example 1.

[4] = system: patients with Spinocerebellar Ataxia (SCA); assay: BHV4157-201 open-label extension phase, interim analysis: modified SARA (axial items)
Description: This example describes a study entitled: Interim Extension Phase Analyses of Study BHV4157-201: Phase IIb/III, Randomized, Double-blind, Placebo-controlled Trial of Troriluzole (BHV-4157) in Adult Subjects with Spinocerebellar Ataxia followed by 96-Week Open-Label Extension Phase.
To date, all subjects have had the chance to complete the Week 24 visit from the long term, open-label extension phase of the trial.
BHV4157-201 is an on-going Phase IIb/III, multicenter, randomized, double-blind, 2-arm placebo-controlled parallel-group study designed to assess safety, tolerability, and efficacy in a population of patients with Spinocerebellar Ataxia (SCA). The study is comprised of two periods: an 8-week randomization period, followed by a 96-week open-label extension period. Regarding key entry criteria, subjects were male and female outpatients between the ages of 18-75 years, inclusive, with a known or suspected diagnosis of the following hereditary ataxias: SCA1, SCA2, SCA3, SCA6, SCA7, SCA8 and SCA10. All subjects completed genetic testing to confirm the diagnosis of hereditary ataxias. The primary objective of the study is to compare the efficacy of troriluzole versus placebo on ataxia symptoms in patients with SCA as measured by the total score on the Scale for the Assessment and Rating of Ataxia (SARA). Secondary objectives include assessments of functional disability, non-ataxia symptoms associated with SCA, global functioning, performance-based measures of ataxia, and neuropsychiatric and cognitive functioning.
During the 8-week Randomization Phase of the study, which has been completed, 141 subjects were randomized, in a 1:1 ratio, to receive either BHV-4157 (140 mg daily) or Placebo. Subjects completing the Randomization Phase were offered approximately 96 weeks of open-label treatment, provided the investigator believed open-label treatment offered an acceptable risk-benefit profile.

[5] = Tolerability in BHV4157-201 trial; details: patients with SCA
Description: as §1, with “Secondary Outcome Measures: • To assess the safety and tolerability of BHV-4157 in subjects with SCA by measuring the frequency and severity of adverse events and discontinuations of adverse events. [Time Frame: Baseline to week 8.]” left out, “Change in PGI-C score” left out
BHV4157-201 is an on-going Phase IIb/III, multicenter, randomized, double-blind, 2-arm placebo-controlled parallel-group study designed to assess safety, tolerability, and efficacy in a population of patients with Spinocerebellar Ataxia (SCA). […] The primary objective of the study is to compare the efficacy of troriluzole versus placebo on ataxia symptoms in patients with SCA as measured by the total score on the Scale for the Assessment and Rating of Ataxia (SARA). […]

[6] = system: ataxia symptoms in subjects with spinocerebellar ataxia (SCA); assay: Phase IIb/III randomized, double-blind, placebo-controlled trial of BHV-4157 in SCA (BHV4157-201), 8-week randomization phase: SARA; details: Females
Procedure: One measure for assessment of the methods of the present invention is by using the Scale for the Assessment and Rating of Ataxia (“SARA”).
The SARA was developed as a clinician-administered instrument to measure severity of symptoms in patients with SCA. While there are multiple scales available, the SARA has been tested in many patients with SCA.
The SARA scores range from 0 (no ataxia) to 40 (severe). The SARA takes approximately 15 minutes to administer. Assessed items include: • Gait (rated 0 to 8) • Stance (0 to 6) • Sitting (0 to 4) • Speech disturbance (0 to 6) • Finger chase (0 to 4) • Nose-finger test (0 to 4) • Fast alternating hand movements (0 to 4) • Heel-shin slide (0 to 4)
Once each of the 8 categories has been assessed, the total score is calculated to determine the severity of ataxia. For motor activities of the four extremities (items 5-8), assessments are performed bilaterally and the mean values are used to obtain the total score.
The purpose of this study is to compare the efficacy of BHV-4157 versus placebo on ataxia symptoms in subjects with spinocerebellar ataxia (SCA).
as §1, §2
Dosing will continue for 8 weeks. Subjects will return to the clinic two weeks after discontinuing study medication for a follow-up safety visit. In addition, subjects completing the Randomization Phase will be offered 48 weeks of open-label treatment as long as the PI believes open-label treatment offers an acceptable risk-benefit profile. Subjects who agree to enter the Extension Phase will not be required to wash-out of drug or complete the follow-up safety visit, but instead should continue dosing as specified in the extension phase. Subjects entering the Extension Phase would have their first Extension Visit four weeks after the Week 8 Randomization Phase visit. If there is a delay of two weeks or more in dosing between the Randomization Phase and the Extension Phase, subjects will be required to complete an Extension Baseline Visit. Thereafter, subjects will undergo visits every fourth week through Week 12 of this phase. Then subjects will undergo visits every 12 weeks up to Week 48 of this phase.

With `CN(CC(=O)Nc1nc2ccc(OC(F)(F)F)cc2s1)C(=O)CNC(=O)CN` [BHV-4157, troriluzole] the “PGI Better and Definite . . .” value ([1]; Lighter at EXP sites) was 19%, the “PGI Any Improvement” value ([1]; Lighter at EXP sites, n = 16) was 45% (n = 16) and the “PGI “Better and Definite Improvement that has made a real & worthwhile difference”” value ([1]; Lighter sample) was 17%. The “PGI Any Improvement” value ([1]; Lighter sample, n = 23) was 34% (n = 23), the “CGI Much Improved” value ([2]; Lighter at EXP sites) was 14% and the “CGI Any Improvement” value ([2]; Lighter at EXP sites, n = 15) was 60% (n = 15). The “CGI Much Improved” value ([2]; Lighter sample) was 27%, the “CGI Any Improvement” value ([2]; Lighter sample, n = 22) was 64% (n = 22) and the “Modified SARA, week 8 StdChg” value ([3]; All SCA, n = 63, May-18) was 0.453. For the same molecule, the “Modified SARA, week 8 Δ Mean” value ([3]; All SCA, n = 63, May-18) was −0.429, the “Modified SARA, week 8 StdChg” value ([3]; SCA1 and SCA2, first Stable column, n = 31) was 0.405 and the “Modified SARA, week 8 Δ Mean” value ([3]; SCA1 and SCA2, first column headed Stable (−1 < diff < 1), n = 31, Stable 2 in Table 16) was −0.387. The “Modified SARA, week 8 StdChg” value ([3]; SCA1 and SCA2, n = 33) was 0.399, the “Modified SARA, week 8 Δ Mean” value ([3]; SCA1 and SCA2, n = 33, May-18) was −0.424 and the “Modified SARA, week 8 StdChg” value ([3]; SCA1 and SCA2, second Stable column, n = 14) was 0.313. For the same molecule, the “Modified SARA, week 8 Δ Mean” value ([3]; SCA1 and SCA2, second column headed Stable (−1 < diff < 1), n = 14, Stable 1 in Table 16) was −0.286, the “change in SARA score (difference BHV-4157 vs placebo)” value ([3]; stable 2 group, 8 weeks) was 0.24 and the “change in SARA score (difference BHV-4157 vs placebo)” value ([3]; stable group 1, 8 weeks) was 0.20. The “Mod SARA change (SD) from Randomization Baseline” value (shortened to “Mod SARA change (SD)”) ([4]; All Patients, 8 weeks) was −0.4 (1.50), the “Mod SARA change (SD)” value ([4]; All Patients, 36 weeks) was −0.1 (1.30) and the “Mod SARA change (SD)” value ([4]; Female Subgroup, 8 weeks) was −0.3 (1.48). For the same molecule, the “Mod SARA change (SD)” value ([4]; Female Subgroup, 24 weeks) was −0.4 (1.32), the “Mod SARA change (SD)” value ([4]; Female Subgroup, 36 weeks) was −0.1 (1.41) and the “Mod SARA change (SD)” value ([4]; Female Subgroup, 48 weeks) was −0.1 (1.50). The “Mod SARA change (SD)” value ([4]; Low Weight Subgroup, 8 weeks) was −0.6 (1.56), the “Mod SARA change (SD)” value ([4]; Low Weight Subgroup, 24 weeks) was −0.5 (1.44) and the “Mod SARA change (SD)” value ([4]; Low Weight Subgroup, 36 weeks) was −0.3 (1.34). For the same molecule, the “Mod SARA change (SD)” value ([4]; Low Weight Subgroup, 48 weeks) was −0.2 (1.41), the “Mod SARA change (SD)” value ([4]; Non-SCA1 & SCA2, 8 weeks) was −0.3 (1.58) and the “Mod SARA change (SD)” value ([4]; Non-SCA1 & SCA2, 24 weeks) was −0.3 (1.24). For the same molecule, the “Mod SARA change (SD)” value ([4]; Non-SCA1 & SCA2, 36 weeks) was −0.1 (1.44), the “Mod SARA change (SD)” value ([4]; Non-SCA1 & SCA2, 48 weeks) was −0.2 (1.44) and the “Mod SARA change (SD)” value ([4]; SCA1 & SCA2, 8 weeks) was −0.5 (1.47). The “Mod SARA change (SD)” value ([4]; SCA1 & SCA2, 24 weeks) was −0.4 (1.45), the “Mod SARA change (SD)” value ([4]; SCA1 & SCA2, 36 weeks) was −0.1 (1.20) and the “Mod SARA change (SD)” value ([4]; SCA1 & SCA2, 48 weeks) was 0.1 (1.44). The “improvement in the axial SARA score” value ([4]; at 6 months) was −0.1 point, the tolerability profile [5] was “favorable” and the “Responder Analysis, ≥3 points in All Subjects (n = 67)” value [6] was 32%.

From patent publication US12102618B2, “Use of riluzole prodrugs to treat ataxias” (Biohaven Therapeutics Ltd., priority 2017, dated 2024)
